From ChEMBL document CHEMBL1201862, “PubChem BioAssay data set” (2004)
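Dose response: 5 concentrations. Exposure: 48 h. Format: 96-well plates. Endpoint: linear interpolation; highest concentration if not reached. GI50 is the concentration that inhibits growth by half.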 Calls of active or inactive are those of the source. No stated cut-off is given here; in the data, active = GI50 up to about 1.1 µM and inactive = higher.

Legend:
Test in all cases: NCI-60 cell line screen, 48 h
786-0 = system: 786-0
A549 = system: A549
CAKI-1 = system: CAKI-1
COLO 205 = system: COLO 205
DMS-273 = system: DMS-273
K562 = system: K562
LOX IMVI = system: LOX IMVI
MOLT-4 = system: MOLT-4
SF-268 = system: SF-268
SF-539 = system: SF-539
SK-MEL-28 = system: SK-MEL-28
SK-OV-3 = system: SK-OV-3
SN12C = system: SN12C
UACC-257 = system: UACC-257
UO-31 = system: UO-31
XF498 = system: XF498
SR = system: SR

Measured: GI50

CC(C)C1COC(c2ccc3ccccc3c2-c2c(O[Si](C)(C)C(C)(C)C)ccc3ccccc23)=N1 (centres undefined)
inactive: 786-0 18.4 µM | A549 17.4 µM | CAKI-1 21.9 µM | COLO 205 18.4 µM | DMS-273 21.4 µM | K562 16.6 µM | LOX IMVI 19.7 µM | MOLT-4 15.6 µM | SF-268 17.9 µM | SF-539 16.9 µM | SK-MEL-28 19.1 µM | SK-OV-3 19.8 µM | SN12C 16.6 µM | UACC-257 18.2 µM | UO-31 14.8 µM | XF498 14.5 µM

COc1ccc2c(C(=O)O)cc3ccccc3c2c1OC
inactive: 786-0 15.7 µM | A549 30 µM | COLO 205 22.1 µM | DMS-273 23.5 µM | K562 24.2 µM | LOX IMVI 17.6 µM | MOLT-4 32.9 µM | SF-268 19.4 µM | SF-539 23.7 µM | SK-MEL-28 18.5 µM | SK-OV-3 38.5 µM | SN12C 20.9 µM | SR 30.5 µM | UACC-257 17.1 µM | UO-31 17.2 µM | XF498 15.8 µM

CCCN(CCC)c1c([N+](=O)[O-])cc(C(N)=O)cc1[N+](=O)[O-]
inactive: 786-0 > 100 µM | A549 81.8 µM | CAKI-1 37.2 µM | COLO 205 86.9 µM | DMS-273 58.9 µM | K562 31.1 µM | MOLT-4 37 µM | SF-268 > 100 µM | SF-539 > 100 µM | SK-MEL-28 > 100 µM | SK-OV-3 58.3 µM | SN12C > 100 µM | UACC-257 49.4 µM | UO-31 65.5 µM | XF498 81.3 µM

O=C(CC12C3C4C1C1C2C3C41CC(=O)NO)NO (centres undefined)
inactive: 786-0 40.7 µM | A549 37.8 µM | CAKI-1 71.8 µM | COLO 205 46.3 µM | DMS-273 40.6 µM | K562 25.2 µM | LOX IMVI 28.9 µM | MOLT-4 45.8 µM | SF-268 50 µM | SF-539 46.3 µM | SK-MEL-28 60.4 µM | SN12C 41.2 µM | SR 49.3 µM | UACC-257 21.8 µM | XF498 > 100 µM

CC(C)(C)C(=O)Nc1ccccc1Br
inactive: 786-0 > 100 µM | A549 > 100 µM | CAKI-1 > 100 µM | COLO 205 > 100 µM | DMS-273 > 100 µM | K562 > 100 µM | LOX IMVI > 100 µM | MOLT-4 > 100 µM | SK-MEL-28 > 100 µM | SK-OV-3 > 100 µM | SN12C > 100 µM | UACC-257 > 100 µM | UO-31 > 100 µM | XF498 > 100 µM

COC(=O)C(Cc1c[nH]c2ccccc12)NC(=O)C(Cc1c[nH]c2ccccc12)NC(=O)OCc1ccccc1 (centres undefined)
inactive: 786-0 16.2 µM | A549 17.8 µM | CAKI-1 19.9 µM | COLO 205 16.8 µM | DMS-273 16 µM | K562 23.6 µM | LOX IMVI 18.3 µM | SF-268 19.1 µM | SF-539 16.7 µM | SK-MEL-28 17.7 µM | SK-OV-3 19.7 µM | SN12C 17.1 µM | UACC-257 > 100 µM | UO-31 19.3 µM | XF498 14.8 µM

C=CCN1CCC23c4c5ccc(O)c4OC2C(=NN=C2CCC4(O)C6Cc7ccc(O)c8c7C4(CCN6CC=C)C2O8)CCC3(O)C1C5 (centres undefined)
inactive: 786-0 18.3 µM | A549 21.4 µM | CAKI-1 44.5 µM | COLO 205 19.9 µM | DMS-273 19.1 µM | K562 26.2 µM | LOX IMVI 20 µM | MOLT-4 38.3 µM | SF-268 53.8 µM | SF-539 18.6 µM | SK-MEL-28 17.3 µM | SK-OV-3 37.5 µM | SN12C 23 µM | UACC-257 23.9 µM | UO-31 > 100 µM | XF498 17.3 µM

CCOC(=O)C12CCCC1(O)N(NC(=O)OC)C(C)=C2C(=O)OC (centres undefined)
inactive: 786-0 20.4 µM | A549 > 100 µM | CAKI-1 > 100 µM | COLO 205 > 100 µM | DMS-273 > 100 µM | K562 > 100 µM | LOX IMVI > 100 µM | MOLT-4 > 100 µM | SF-268 > 100 µM | SF-539 > 100 µM | SK-MEL-28 > 100 µM | SK-OV-3 > 100 µM | SN12C > 100 µM | UACC-257 > 100 µM | UO-31 > 100 µM | XF498 > 100 µM

O=[N+]([O-])C(=C(c1ccccc1)c1ccccc1)[N+](=O)[O-]
inactive: 786-0 14.5 µM | A549 23.1 µM | CAKI-1 21.1 µM | COLO 205 12.4 µM | DMS-273 4.53 µM | K562 20.5 µM | LOX IMVI 2.96 µM | MOLT-4 3.32 µM | SF-268 4.57 µM | SF-539 13.6 µM | SK-MEL-28 7.98 µM | SN12C 15.5 µM | SR 3.29 µM | UACC-257 13.1 µM | UO-31 22.1 µM

COc1cc(O)c2c(c1)C(=O)C=C(Cl)C2=O
inactive: 786-0 > 100 µM | A549 > 100 µM | CAKI-1 > 100 µM | COLO 205 > 100 µM | DMS-273 > 100 µM | K562 > 100 µM | LOX IMVI > 100 µM | MOLT-4 > 100 µM | SF-268 > 100 µM | SF-539 68.4 µM | SK-MEL-28 > 100 µM | SK-OV-3 > 100 µM | UACC-257 > 100 µM | UO-31 16 µM | XF498 42.2 µM

COc1ccc(C(=O)C(C(=O)CCC(=O)Nc2ccc(Cl)c(Cl)c2)c2ccc(OC)cc2)cc1 (centres undefined)
inactive: 786-0 > 100 µM | A549 > 100 µM | CAKI-1 > 100 µM | DMS-273 > 100 µM | K562 > 100 µM | LOX IMVI > 100 µM | MOLT-4 > 100 µM | SF-268 > 100 µM | SF-539 > 100 µM | SK-MEL-28 > 100 µM | SN12C > 100 µM | UACC-257 > 100 µM | UO-31 > 100 µM | XF498 > 100 µM

Cc1cc2c(=O)c3ccc(Cl)cc3[nH]c2c(C(=O)O)c1C
inactive: 786-0 > 100 µM | A549 > 100 µM | CAKI-1 > 100 µM | COLO 205 > 100 µM | K562 > 100 µM | LOX IMVI > 100 µM | MOLT-4 > 100 µM | SF-268 > 100 µM | SF-539 > 100 µM | SK-MEL-28 > 100 µM | SK-OV-3 > 100 µM | SN12C > 100 µM | UACC-257 > 100 µM | UO-31 46.1 µM | XF498 > 100 µM

O=C(CCC(=O)C(C(=O)c1ccccc1)c1ccccc1)Nc1cccc(C(F)(F)F)c1 (centres undefined)
inactive: 786-0 > 100 µM | A549 > 100 µM | CAKI-1 > 100 µM | COLO 205 > 100 µM | DMS-273 > 100 µM | K562 > 100 µM | LOX IMVI > 100 µM | MOLT-4 > 100 µM | SF-268 > 100 µM | SF-539 > 100 µM | SK-OV-3 > 100 µM | SN12C > 100 µM | UACC-257 > 100 µM | UO-31 > 100 µM | XF498 > 100 µM

COc1ccc(-c2onc(-c3ccc([N+](=O)[O-])cc3)c2C2=NCCN2)cc1
inactive: 786-0 17 µM | A549 > 100 µM | CAKI-1 > 100 µM | COLO 205 > 100 µM | K562 > 100 µM | LOX IMVI 79.6 µM | MOLT-4 > 100 µM | SF-268 72.3 µM | SF-539 38 µM | SK-MEL-28 > 100 µM | SN12C 67.5 µM | SR > 100 µM | UACC-257 18.5 µM | UO-31 29.6 µM | XF498 66.7 µM

Cc1nc2c(n1CCC(C)C)C(=O)c1ccccc1C2=O
inactive: 786-0 24.9 µM | A549 30.4 µM | COLO 205 14.3 µM | DMS-273 11 µM | K562 8.07 µM | LOX IMVI 14.7 µM | MOLT-4 8.26 µM | SF-268 14.3 µM | SF-539 12 µM | SK-MEL-28 17.3 µM | SK-OV-3 38.4 µM | SN12C 23.2 µM | SR 4.71 µM | UACC-257 27.7 µM | UO-31 24.8 µM | XF498 17.2 µM

Cc1ccccc1NC(=O)C(=O)c1c(O)c2ccc(O)cc2oc1=O
inactive: 786-0 > 100 µM | A549 > 100 µM | CAKI-1 > 100 µM | COLO 205 > 100 µM | DMS-273 > 100 µM | K562 > 100 µM | LOX IMVI > 100 µM | MOLT-4 > 100 µM | SF-268 > 100 µM | SK-MEL-28 > 100 µM | SK-OV-3 > 100 µM | SN12C > 100 µM | UACC-257 > 100 µM | UO-31 > 100 µM | XF498 > 100 µM

CCC(C)CCOC(=O)c1ccc(/N=C\c2ccc(/C=N/c3ccc(C(=O)OCCC(C)CC)cc3)cc2)cc1 (centres undefined)
inactive: 786-0 > 100 µM | A549 > 100 µM | CAKI-1 > 100 µM | COLO 205 > 100 µM | DMS-273 > 100 µM | K562 > 100 µM | LOX IMVI > 100 µM | MOLT-4 > 100 µM | SF-268 > 100 µM | SF-539 > 100 µM | SK-MEL-28 > 100 µM | SK-OV-3 > 100 µM | SN12C > 100 µM | SR > 100 µM | UACC-257 > 100 µM | UO-31 41.1 µM

O=C(NCC#CCO)C(F)(F)F
inactive: 786-0 > 100 µM | A549 > 100 µM | CAKI-1 > 100 µM | DMS-273 > 100 µM | LOX IMVI > 100 µM | MOLT-4 > 100 µM | SF-268 > 100 µM | SF-539 > 100 µM | SK-MEL-28 > 100 µM | SK-OV-3 97.5 µM | SN12C > 100 µM | SR > 100 µM | UACC-257 > 100 µM | UO-31 > 100 µM | XF498 > 100 µM
